In brackets after ≈: the same amount, converted by molar mass.
How the values were obtained:
thoracic aorta of rats = assay: Relaxing effect on thoracic aorta contracted by phenylephrine (organ bath); parameters: species or system rats of SD species; details: Rattus norvegicus; 67 μg/mL; phenylephrine 0.5 μM; mean n = 3; read-out: Relaxation percentage
Procedure, shortened: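 Thoracic aortic rings (2 mm) from ether-anesthetized male SD rats (250-300 g) were mounted in Krebs buffer gassed with 95% O2/5% CO2 and equilibrated at 1.0 g basal tension for 90 min. After stable contraction with phenylephrine (0.5 μM), compounds were added and relaxation recorded.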

[1] = system: superoxide dismutase (SOD); assay: Increase of superoxide dismutase (SOD) activity in mouse brain cells; type: cell-based; details: 100 μg/ml
Description: (§1) ROS inhibitory effect of compounds was represented to the dose suppressing 50% of production of reactive oxygen compared to control. […] The activity of superoxide dismutase (SOD) was measured by using a kit acquired in Sigma.

[2] = system: mixed culture of nerve cells-glial cells; assay: Protecting effect on NMDA-induced nerve cell death (LDH release); type: cell-based, ICR mouse; details: 100 μM NMDA, LDH release after 24 hours
Procedure, shortened: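 Embryonic day-14 ICR mouse cortical neurons seeded on cortical glia, Ara-C-treated, then exposed at day 12–15 for 20 min to 100 μM NMDA with compound at 1 or 2 μg/mL. LDH released 24 h later measured colorimetrically as a cell-death index.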

mouse brain cells = assay: Inhibitory effect on ROS production in brain cells (DCF-DA, NMDA-induced); type: cell-based; details: 24 h; dose suppressing 50% of production of reactive oxygen compared to control; mouse brain cells; read-out: ROS inhibitory effect ID50
Description: Oxidative stress was measured to test inhibitory effects on the production of reactive oxygen species (ROS) by using DCF-DA, which is a fluorescent probe. Brain cells were obtained from brain cortex of mouse to prepare cell solution with 2×10^6 cells/ml. Each brain cell was treated with 11 μM of DCF-DA followed by reaction in 37° C., 5% CO2 incubator for an hour. After washing twice, Compound 3 was treated with a concentration of 125 μg/ml and 250 μg/ml. At the same time, 300 μM of NMDA was treated and it was incubated in 37° C., 5% CO2 incubator for 24 hours.
as §1

[3] = system: pentylentetrazole (PTZ)-induced convulsion; assay: Anti-convulsant effect, pentylentetrazole (PTZ) test; type: in vivo; details: 10 mg/kg intraperitoneally, PTZ 80 mg/kg subcutaneously; for mortality rate / Induction percentage of convulsion: (animals/total); for mortality rate: negative control 70(17/23); for Induction percentage of convulsion: negative control 100(23/23); for Initiation time of convulsion: negative control 5.0 ± 0.7; for Duration of convulsion: negative control 46.7 ± 3.3
Procedure, shortened: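 Compound was given intraperitoneally at 10 mg/kg before PTZ challenge. The read-outs were time to convulsion onset, time until convulsions fully disappeared, and mortality.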

Structure (SMILES) | inhibition at 67 µg/mL (thoracic aorta of rats) [%] | Increase of SOD activity, compared to control [1] | Inhibitory effect of cell death by NMDA-induced excitable neurotoxicity ([2]; 1 μg/ml compound) [%] | Inhibitory effect of cell death by NMDA-induced excitable neurotoxicity ([2]; 2 μg/ml compound) [%] | IC50 (mouse brain cells) [µg/mL] | mortality rate [3] | Induction percentage of convulsion [3] | Initiation time of convulsion [3] [min] | Duration of convulsion [3] [min]
CCCCCCN(CCCCN(CCCn1c(=O)[nH]c2ccccc2c1=O)C(=O)OC(C)(C)C)CCCn1c(=O)[nH]c2ccccc2c1=O [Compound 30, [3-(2,4-dioxo-1,4-dihydro-2H-quinazolin-3-yl)propyl]-(4-{[3-(2,4-dioxo-1,4-dihydro-2H-quinazolin-3-yl)propyl]hexylamino}butyl)carbamic acid tert-butyl ester] | 40.4 | 6.2 ± 6.2 | 38.3 | 44.4 | 79.5 ± 15.7 (≈ 117 µM) | 83(5/6) % | 83(5/6) % | 15.9 ± 9.0 | 44.1 ± 9.0
O=C(N(CCCCN(CCCn1c(=O)[nH]c2ccccc2c1=O)C(=O)C(F)(F)F)CCCn1c(=O)[nH]c2ccccc2c1=O)C(F)(F)F [Compound 37, N-[3-(2,4-dioxo-1,4-dihydro-2H-quinazolin-3-yl)propyl]-N-{4-[[3-(2,4-dioxo-1,4-dihydro-2H-quinazolin-3-yl)propyl]-(2,2,2-trifluoroacetyl)amino]butyl}-2,2,2-trifluoroacetamide] | 7.9 | 2.0 ± 5.8 | 27.3 | 25.0 | 22.9 ± 17.3 (≈ 33.5 µM) |  |  |  | 
COCC(=O)N(CCCCNCCCn1c(=O)[nH]c2ccccc2c1=O)CCCn1c(=O)[nH]c2ccccc2c1=O [Compound 38, N-[3-(2,4-dioxo-1,4-dihydro-2H-quinazolin-3-yl)propyl]-N-{4-[3-(2,4-dioxo-1,4-dihydro-2H-quinazolin-3-yl)propylamino]butyl}-2-methoxyacetamide] | 88.2 | 3.2 ± 4.9 | 33.5 | 13.5 | 136 ± 11 (≈ 241 µM) | 17(1/6) % | 83(5/6) % | 16.0 ± 9.0 | 11.2 ± 7.3
O=C(OCc1ccccc1)N(CCCCNCCCn1c(=O)[nH]c2ccccc2c1=O)CCCn1c(=O)[nH]c2ccccc2c1=O [Compound 39, [3-(2,4-dioxo-1,4-dihydro-2H-quinazolin-3-yl)propyl]-{4-[3-(2,4-dioxo-1,4-dihydro-2H-quinazolin-3-yl)propylamino]butyl}carbamic acid benzyl ester] | 54.8 | 19.0 ± 6.3 | 30.8 | 17.1 | 32.3 ± 20 (≈ 51.5 µM) | 0(0/6) % | 100(6/6) % | 9.5 ± 2.8 | 19.8 ± 6.4
Cc1ccc(S(=O)(=O)N(CCCCN(CCCn2c(=O)[nH]c3ccccc3c2=O)S(=O)(=O)c2ccc(C)cc2)CCCn2c(=O)[nH]c3ccccc3c2=O)cc1 [Compound 41, N-[3-(2,4-dioxo-1,4-dihydro-2H-quinazolin-3-yl)propyl]-N-(4-{[3-(2,4-dioxo-1,4-dihydro-2H-quinazolin-3-yl)propyl]-4-methylbenzenesulfonylamino}butyl)-4-methylbenzenesulfonamide] | 7.1 | 2.0 ± 0.9 |  | 28.5 | 27.2 ± 18.6 (≈ 34 µM) |  |  |  | 
O=C1CCC(=O)N1CCCNCCCCNCCCn1c(=O)[nH]c2ccccc2c1=O [Compound 42, 3-(3-{4-[3-(2,5-dioxo-pyrrolidine-1-yl)propylamino]butylamino}propyl)-1H-quinazoline-2,4-dione] | 14.6 | 1.6 ± 2.6 | 24.6 | 21.8 | 138 ± 21 (≈ 321 µM) | 17(1/6) % | 100(6/6) % | 9.8 ± 4.1 | 18.2 ± 8.6

From US8404696B2, “Quinazoline-2,4-dione derivative, and medical compositions for the prophylaxis and treatment of cranial nerve disease containing the same” (Shin Poong Pharmaceutical Co., Ltd., priority 2008, dated 2013)
